Like-named read-outs stand apart in the source and are kept apart here.
Tests used:
HCC15 cells = assay: Cell viability of KIF18a-sensitive cell lines, HCC15 (Cell Titre-Glo, 7 days); assay type: cell-based; conditions: HCC15, 168 h, read-out: HCC-15 IC50
Experimental: Cell Viability of KIF18a-Sensitive Cell Lines
Cell lines were seeded as follows 24 hours before compound treatment: HCC15 (Korean Cell Line Bank) 600 cell/well, 95 μL of RPMI-1640 media supplemented with 100 units/mL penicillin, 100 units/mL streptomycin and 10% FBS; NIH:OVCAR-3 (ATCC), 1000 cell/well, 95 μL of RPMI-1640 media supplemented with 100 units/mL penicillin, 100 units/mL streptomycin, 0.01 mg/mL bovine insulin, and 20% FBS; JIMT-1 (Addexbio) 1000 cell/well, 95 μL of DMEM media supplemented with 100 units/mL penicillin, 100 units/mL streptomycin, and 10% FBS.
Test compounds were added to cells in a 20× dilution scheme by adding 5 μL of serially diluted compound to the plate, and the treated cells were incubated for an additional 7 days in a 37° C., 5% CO2 incubator. DMSO was used as the negative control (0% effect), and wells omitting cells were used as the positive control (100% effect). The cells were incubated for seven days, and cell viability determined via the Promega Cell Titre-Glo® Assay kit. Luminescence units were converted to ATP concentrations via an ATP standard curve (10 point, 2-fold dilution from 5 uM). % Inhibition was calculated for each well as: ([max−min]−[test−min])/[max−min]. IC50 values were calculated from concentration vs. % Inhibition data via a four-parameter variable slope model.

hKIF18A (1-374) = hKIF18A (1-374) (Homo sapiens (Human), UniProt Q8NI77); assay: Inhibition of KIF18A microtubule-dependent ATPase activity (ADP-Glo); conditions: KIF18A microtubule-dependent ATPase activity, biochemical assay
Chain of hKIF18A (1-374) (Q8NI77 whole entry, looked up): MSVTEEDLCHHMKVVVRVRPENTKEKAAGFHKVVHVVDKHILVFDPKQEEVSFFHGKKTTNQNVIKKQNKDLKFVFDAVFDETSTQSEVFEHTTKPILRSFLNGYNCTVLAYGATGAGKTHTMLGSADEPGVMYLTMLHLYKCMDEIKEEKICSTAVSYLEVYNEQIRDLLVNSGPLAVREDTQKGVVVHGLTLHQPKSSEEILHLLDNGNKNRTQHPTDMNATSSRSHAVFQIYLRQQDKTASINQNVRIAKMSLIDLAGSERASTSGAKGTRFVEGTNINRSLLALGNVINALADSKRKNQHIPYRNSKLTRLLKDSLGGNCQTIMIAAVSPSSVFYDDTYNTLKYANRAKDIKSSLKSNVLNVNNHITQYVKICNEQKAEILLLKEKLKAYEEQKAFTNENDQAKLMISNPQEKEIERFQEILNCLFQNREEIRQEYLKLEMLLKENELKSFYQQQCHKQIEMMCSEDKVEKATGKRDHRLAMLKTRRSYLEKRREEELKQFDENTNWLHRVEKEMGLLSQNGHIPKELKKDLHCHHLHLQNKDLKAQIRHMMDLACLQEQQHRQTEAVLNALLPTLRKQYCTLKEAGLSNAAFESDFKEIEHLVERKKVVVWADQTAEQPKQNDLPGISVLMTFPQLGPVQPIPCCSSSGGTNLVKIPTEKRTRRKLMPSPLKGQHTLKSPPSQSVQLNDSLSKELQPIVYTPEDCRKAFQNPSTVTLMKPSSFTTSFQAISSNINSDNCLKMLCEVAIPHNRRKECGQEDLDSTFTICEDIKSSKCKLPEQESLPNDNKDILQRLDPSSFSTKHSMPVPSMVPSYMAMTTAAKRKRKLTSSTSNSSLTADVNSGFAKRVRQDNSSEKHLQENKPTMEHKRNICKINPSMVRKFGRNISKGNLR
Chain of hKIF18A (1-374) (Q2XVP4 whole entry partner, looked up): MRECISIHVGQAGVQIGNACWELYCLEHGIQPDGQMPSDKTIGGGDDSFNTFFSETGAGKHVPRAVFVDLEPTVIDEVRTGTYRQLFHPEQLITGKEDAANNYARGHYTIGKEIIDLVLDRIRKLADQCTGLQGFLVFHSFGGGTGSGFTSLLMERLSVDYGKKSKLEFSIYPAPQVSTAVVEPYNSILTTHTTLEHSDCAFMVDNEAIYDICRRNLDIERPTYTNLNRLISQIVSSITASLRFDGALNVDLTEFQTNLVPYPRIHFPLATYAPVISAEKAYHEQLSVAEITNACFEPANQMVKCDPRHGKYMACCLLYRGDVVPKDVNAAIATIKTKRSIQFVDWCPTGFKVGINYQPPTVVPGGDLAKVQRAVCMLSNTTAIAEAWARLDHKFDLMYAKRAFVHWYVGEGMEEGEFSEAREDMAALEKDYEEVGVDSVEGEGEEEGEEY
Chain of hKIF18A (1-374) (P02554 whole entry partner, looked up): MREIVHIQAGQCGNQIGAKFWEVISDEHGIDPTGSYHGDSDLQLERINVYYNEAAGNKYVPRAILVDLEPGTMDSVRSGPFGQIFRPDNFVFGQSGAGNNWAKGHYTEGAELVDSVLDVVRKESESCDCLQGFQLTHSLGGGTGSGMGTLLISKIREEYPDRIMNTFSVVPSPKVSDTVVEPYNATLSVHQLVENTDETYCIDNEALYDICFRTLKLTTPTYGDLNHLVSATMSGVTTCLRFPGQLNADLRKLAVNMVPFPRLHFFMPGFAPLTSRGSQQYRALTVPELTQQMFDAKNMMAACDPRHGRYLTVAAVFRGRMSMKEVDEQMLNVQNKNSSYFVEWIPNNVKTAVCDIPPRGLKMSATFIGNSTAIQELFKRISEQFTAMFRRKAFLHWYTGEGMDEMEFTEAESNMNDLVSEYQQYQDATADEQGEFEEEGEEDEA

[1] = target: KIF18a-Microtubule Complex (Homo sapiens (Human), UniProt Q8NI77); assay: Binding kinetics to KIF18a-microtubule complex (global progress curve analysis); conditions: for kon (on-rate from binding kinetics assay) / koff (off-rate from binding kinetics assay): global progress curve analysis; for Ki: read-out: KI (determined from binding kinetic assay koff/kon), koff/kon; for koff: read-out: koff (off-rate from binding kinetics assay)
Chain of KIF18a-Microtubule Complex (Q8NI77 whole entry, looked up): as the sequence (Q8NI77 whole entry, looked up) above
Chain of KIF18a-Microtubule Complex (Q2XVP4 whole entry partner, looked up): as the sequence (Q2XVP4 whole entry partner, looked up) above
Chain of KIF18a-Microtubule Complex (P02554 whole entry partner, looked up): as the sequence (P02554 whole entry partner, looked up) above
Experimental: Binding Kinetics to KIF18a-Microtubule Complex
Compound binding kinetics parameters (kon and koff) were determined by the method of global progress curve analysis (GPCA). […] ADP product levels were determined by the Promega® ADP-Glo assay. The time/dose-dependent progress curves were then globally fit to a Michaelis-Menten kinetics model with 1-step slow binding inhibition to derive both on-rate kon and off-rate koff values (Zhang, R., Wong, K. (2017): “High performance enzyme kinetics of turnover, activation and inhibition for translational drug discovery”, Expert Opinion on Drug Discovery, 2017 January; 12(1):17-37. doi: 10.1080/17460441.2017.1245721).

[2] = HCC-15 cells, 7 days, Cell Titre-Glo

Row | SMILES | IC50 (HCC15 cells; [2]) | IC50 (hKIF18A (1-374)) | kon (on-rate from binding kinetics assay) [1] | disc. t1/2 (dissociation half-life ln(2)/koff) [1] | Ki [1] | koff [1] | IC50 (HCC15 cells) | koff (off-rate from binding kinetics assay) [1]
1 | O=C(c1cccc(S(=O)(=O)N2CCC(F)(F)CC2)c1)N1CC2(CCCC2)c2cc(NS(=O)(=O)CCO)ccc21 [Compound 27, N-(1′-(3-((4,4-difluoropiperidin-1-yl)sulfonyl)benzoyl)spiro[cyclopentane-1,3′-indolin]-5′-yl)-2-hydroxyethane-1-sulfonamide] |  |  |  |  |  |  | 0.14 µM | 
2 | CS(=O)(=O)Nc1ccc2c(c1)C1(CCC3(CC3)CC1)CN2C(=O)c1cccc(S(=O)(=O)NC2CCC2)c1 [Compound 168, N-cyclobutyl-3-(5″- (methylsulfonamido)dispiro[cyclopropane-1,1′-cyclohexane-4′,3″-indoline]-1″-carbonyl)benzenesulfonamide] | 0.028 µM | 0.0055 µM |  |  |  |  |  | 
3 | CC(C)(C)NS(=O)(=O)c1cccc(C(=O)N2CC3(CCC4(CC4)CC3)c3ccccc32)c1 [Compound 10, N-(tert-butyl)-3-(dispiro[cyclopropane-1,1′-cyclohexane-4′,3″-indoline]-1″- carbonyl)benzenesulfonamide] | 2.2 µM | 0.27 µM |  |  |  |  |  | 
4 | CC1CCC2(CC1)CN(C(=O)c1cccc(S(=O)(=O)NC(C)(C)C)c1)c1ccc(NS(C)(=O)=O)cc12 (centres unmarked) [Compound 140, N-(tert-butyl)-3-(4-methyl-5′-(methylsulfonamido)spiro[cyclohexane-1,3′-indoline]-1′-carbonyl)benzenesulfonamide] | 0.038 µM | 0.013 µM |  |  |  |  |  | 
5 | CC(C)(C)NS(=O)(=O)c1cc(C(=O)N2CC3(CCC4(CC4)CC3)c3cc(NS(C)(=O)=O)ccc32)cs1 [Compound 262, N-(tert-butyl)-4-(5″- (methylsulfonamido)dispiro[cyclopropane-1,1′-cyclohexane-4′,3″-indoline]-1″-carbonyl)thiophene-2-sulfonamide] |  | 0.0059 µM | 8890 M⁻¹ s⁻¹ | 6.7 h | 0.00031 µM | 2.86e-05 s⁻¹ |  | 
6 | CS(=O)(=O)Nc1ccc2c(c1)C1(CCCCC1)CN2C(=O)c1cccc([S+]([O-])C2CCCC2)c1 (centres unmarked) [Compound 43, N-(1′-(3-(cyclopentylsulfinyl)benzoyl)spiro [cyclohexane-1,3′-indolin]-5′-yl)methanesulfonamide] | 0.49 µM | 0.089 µM |  |  |  |  |  | 
7 | CS(=O)(=O)Nc1ccc2c(c1)C1(CCC3(CC3)CC1)CN2C(=O)c1cccc([C@H](O)C2CC(F)(F)C2)c1 (single isomer, unassigned) [Compound 351a] |  | 0.0087 µM | 19400 M⁻¹ s⁻¹ | 1.7 h | 0.0058 µM |  |  | 0.000114 s⁻¹
8 | CCS(=O)(=O)Nc1ccc2c(c1)[C@]1(CC[C@H](C(F)F)CC1)CN2C(=O)c1cccc(S(=O)(=O)NC(C)(C)C)c1 [Compound 333b] |  | 0.033 µM | 3890 M⁻¹ s⁻¹ | 63 h | 0.00077 µM |  |  | 3.06e-06 s⁻¹
9 | O=C(c1cccc(S(=O)(=O)N2CCC(F)(F)CC2)c1)N1CC2(CCC3(CC3)CC2)c2ccccc21 [Compound 4, (3-((4,4-difluoropiperidin-1-yl)sulfonyl)phenyl)(dispiro[cyclopropane-1,1′-cyclohexane-4′,3″-indolin]-1″- yl)methanone] | 2.1 µM | 0.36 µM |  |  |  |  |  | 
10 | CC(C)(C)NS(=O)(=O)c1cccc(C(=O)N2CC3(CCCCC3)c3cc(NS(C)(=O)=O)ccc32)c1 [Compound 26, N-(tert-butyl)-3-(5′-(methylsulfonamido)spiro[cyclohexane-1,3′-indoline]-1′-carbonyl)benzenesulfonamide] | 0.069 µM | 0.067 µM |  |  |  |  |  | 
11 | CC(C)(C)NS(=O)(=O)c1cc(C(=O)N2CC3(CCC4(CC4)CC3)c3cc(NS(C)(=O)=O)ccc32)ccc1O [Compound 298, N-(tert-butyl)-2-hydroxy-5-(5″-(methylsulfonamido)dispiro[cyclopropane-1,1′-cyclohexane-4′,3″-indoline]-1″-carbonyl)benzenesulfonamide] |  | 0.0084 µM | 19700 M⁻¹ s⁻¹ | 26 h | 0.00038 µM | 7.5e-06 s⁻¹ |  | 
12 | CC(C)(C)NS(=O)(=O)c1cccc(C(=O)N2C[C@]3(CC[C@H](C(F)F)CC3)c3cc(NS(C)(=O)=O)ccc32)c1 [Compound 162a] |  | 0.015 µM | 8060 M⁻¹ s⁻¹ | 13 h | 0.0019 µM |  |  | 1.53e-05 s⁻¹
13 | CS(=O)(=O)Nc1ccc2c(c1)C1(CCCCC1)CN2C(=O)c1cccc(S(=O)(=O)N2CC3(CCC3)C2)c1 [Compound 129, N-(1′-(3-((2-azaspiro[3.3]heptan-2-yl)sulfonyl)benzoyl)spiro[cyclohexane-1,3′-indolin]-5′-yL)methanesulfonamide] |  | 0.045 µM | 12200 M⁻¹ s⁻¹ | 2.5 h | 0.0063 µM | 7.78e-05 s⁻¹ |  | 
14 | CS(=O)(=O)Nc1ccc2c(c1)C1(CCC3(CC3)CC1)CN2C(=O)c1cccc(S(=O)(=O)C2CCCC2)c1 [Compound 155, N-(1″-(3-(cyclopentylsulfonyl)benzoyl)dispiro [cyclopropane-1,1′-cyclohexane-4′,3″- indolin]-5″-yl)methanesulfonamide] |  | 0.0074 µM | 30600 M⁻¹ s⁻¹ | 6.5 h | 0.002 µM | 3.06e-05 s⁻¹ |  | 

More lines, main results first:

Row | IC50 (HCC15 cells; [2]) | IC50 (hKIF18A (1-374)) | kon (on-rate from binding kinetics assay) [1] | disc. t1/2 (dissociation half-life ln(2)/koff) [1] | Ki [1] | koff [1] | SMILES | IC50 (HCC15 cells) | koff (off-rate from binding kinetics assay) [1]
15 | 0.044 µM | 0.018 µM |  |  |  |  | CS(=O)(=O)Nc1ccc2c(c1)C1(CCC3(CC3)CC1)CN2C(=O)c1cccc(S(=O)(=O)N2CC3(CCO3)C2)c1 [Compound 153, N-(1″-(3-((1-oxa-6-azaspiro[3.3]heptan-6-yl)sulfonyl)benzoyl)dispiro[cyclopropane-1,1′-cyclohexane-4′,3″-indolin]-5″- yl)methanesulfonamide] |  | 
16 | 0.025 µM | 0.013 µM |  |  |  |  | CS(=O)(=O)Nc1ccc2c(c1)C1(CCC3(CC3)CC1)CN2C(=O)c1cccc(S(=O)(=O)N2CCCCC2)c1 [Compound 20, N-(1″-(3-(piperidin-1-ylsulfonyl)benzoyl)dispiro[cyclopropane-1,1′-cyclohexane-4′,3″-indolin]-5″- yl)methanesulfonamide] |  | 
17 | 0.33 µM | 0.022 µM |  |  |  |  | O=C(c1cccc(S(=O)(=O)N2CCC(F)(F)CC2)c1)N1CC2(CCC3(CC3)CC2)c2cc(NS(=O)(=O)CCO)ccc21 [Compound 29, N-(1″-(3-((4,4-difluoropiperidin-1-yl)sulfonyl)benzoyl)dispiro[cyclopropane-1,1′-cyclohexane-4′,3″-indolin]-5″-yl)-2-hydroxyethane-1-sulfonamide] |  | 
18 | 0.055 µM | 0.019 µM |  |  |  |  | CS(=O)(=O)Nc1ccc2c(c1)C1(CCC3(CC3)CC1)CN2C(=O)c1cccc(S(=O)(=O)N2CCCC2)c1 [Compound 21, N-(1″-(3-(pyrrolidin-1-ylsulfonyl)benzoyl)dispiro[cyclopropane-1,1′-cyclohexane-4′,3″-indolin]-5″- yl)methanesulfonamide] |  | 
19 | 0.024 µM | 0.01 µM |  |  |  |  | CS(=O)(=O)Nc1ccc2c(c1)C1(CCC3(CC3)CC1)CN2C(=O)c1cccc(S(=O)(=O)N2CCC(F)(F)CC2)c1 [Compound 28, N-(1″-(3-((4,4-difluoropiperidin-1-yl)sulfonyl)benzoyl)dispiro[cyclopropane-1,1′-cyclohexane-4′,3″-indolin]-5″-yl)methanesulfonamide] |  | 
20 |  | 0.011 µM | 22800 M⁻¹ s⁻¹ | 19 h | 0.00044 µM | 1e-05 s⁻¹ | CS(=O)(=O)Nc1ccc2c(c1)C1(CCC3(CC3)CC1)CN2C(=O)c1cccc(S(=O)(=O)N2CC3C(C2)C3(F)F)c1 (centres unmarked) [Compound 237, N-(1″-(3-((6,6-difluoro-3-azabicyclo[3.1.0]hexan-3-yl)sulfonyl)benzoyl)dispiro[cyclopropane-1,1′-cyclohexane-4′,3″-indolin]-5″- yl)methanesulfonamide] |  | 
21 |  | 0.0093 µM | 16700 M⁻¹ s⁻¹ | 8.1 h | 0.0014 µM | 2.39e-05 s⁻¹ | CS(=O)(=O)Nc1ccc2c(c1)C1(CCC3(CC3)CC1)CN2C(=O)c1cccc(S(=O)(=O)N2CC[C@@H](F)C2)c1 [(R)-Compound 239, (R)-N-(1″-(3-((3-fluoropyrrolidin-1-yl)sulfonyl)benzoyl)dispiro[cyclopropane-1,1′-cyclohexane-4′,3″-indolin]-5″- yl)methanesulfonamide] |  | 

Reference: patent publication US12084420B2, “Indoline compounds for inhibiting KIF18A” (Volastra Therapeutics, Inc., priority 2021, dated 2024)
